Test results from PubChem BioAssay (NCI).
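How tested: cells in 96-well plates exposed to compound for 48 hours at five concentrations. The concentration for 50% growth inhibition is given as GI50. Definition used: TGI = concentration required for complete inhibition of growth.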

Tests used:
Assay in all cases: DTP human tumour cell line panel, 48 h
HS 578T breast = test system: HS 578T breast
LOX IMVI melanoma = test system: LOX IMVI melanoma
SNB-75 CNS = test system: SNB-75 CNS
SK-OV-3 ovarian = test system: SK-OV-3 ovarian
SK-MEL-2 melanoma = test system: SK-MEL-2 melanoma
T-47D breast = test system: T-47D breast
NCI-H460 lung = test system: NCI-H460 lung
U251 CNS = test system: U251 CNS
NCI-H23 lung = test system: NCI-H23 lung
A549 NSCLC = test system: A549 NSCLC
SR leukemia = test system: SR leukemia
NCI-H226 lung = test system: NCI-H226 lung
SK-MEL-28 melanoma = test system: SK-MEL-28 melanoma
SF-539 CNS = test system: SF-539 CNS
UACC-257 melanoma = test system: UACC-257 melanoma
SK-MEL-5 melanoma = test system: SK-MEL-5 melanoma
SN12C renal = test system: SN12C renal
OVCAR-8 ovarian = test system: OVCAR-8 ovarian
MDA-MB-231 breast = test system: MDA-MB-231 breast
MALME-3M melanoma = test system: MALME-3M melanoma
HCT-116 colon = test system: HCT-116 colon
OVCAR-5 ovarian = test system: OVCAR-5 ovarian
HCT-15 colon = test system: HCT-15 colon
OVCAR-3 ovarian = test system: OVCAR-3 ovarian
RXF 393 renal = test system: RXF 393 renal
786-0 renal = test system: 786-0 renal
SF-268 CNS = test system: SF-268 CNS
SW-620 colon = test system: SW-620 colon
IGROV1 ovarian = test system: IGROV1 ovarian
OVCAR-4 ovarian = test system: OVCAR-4 ovarian
ACHN renal = test system: ACHN renal
HL-60(TB) leukemia = test system: HL-60(TB) leukemia
A498 renal = test system: A498 renal
CCRF-CEM leukemia = test system: CCRF-CEM leukemia
HCC-2998 colon = test system: HCC-2998 colon
HOP-62 NSCLC = test system: HOP-62 NSCLC
PC-3 prostate = test system: PC-3 prostate
K-562 leukemia = test system: K-562 leukemia
UO-31 renal = test system: UO-31 renal
SNB-19 CNS = test system: SNB-19 CNS
TK-10 renal = test system: TK-10 renal
HOP-92 NSCLC = test system: HOP-92 NSCLC
COLO 205 colon = test system: COLO 205 colon
RPMI-8226 leukemia = test system: RPMI-8226 leukemia
SF-295 CNS = test system: SF-295 CNS
BT-549 breast = test system: BT-549 breast
EKVX NSCLC = test system: EKVX NSCLC
NCI-H522 lung = test system: NCI-H522 lung
DU-145 prostate = test system: DU-145 prostate
MOLT-4 leukemia = test system: MOLT-4 leukemia
CAKI-1 renal = test system: CAKI-1 renal
KM12 colon = test system: KM12 colon
NCI/ADR-RES ovarian = test system: NCI/ADR-RES ovarian
MDA-MB-435 = test system: MDA-MB-435
HT29 colon = test system: HT29 colon
MCF7 breast = test system: MCF7 breast
M14 melanoma = test system: M14 melanoma
UACC-62 melanoma = test system: UACC-62 melanoma
MDA-N = test system: MDA-N

## CCC(=O)Nc1ccc(C)c(-c2ccc(C(=O)NCC3CC3)cc2)c1
HS 578T breast
  GI50: > 25 µM
  TGI: > 25 µM
LOX IMVI melanoma
  GI50: > 25 µM
  TGI: > 25 µM
SNB-75 CNS
  GI50: > 25 µM
  TGI: > 25 µM
SK-OV-3 ovarian
  GI50: > 25 µM
  TGI: > 25 µM
SK-MEL-2 melanoma
  GI50: > 25 µM
  TGI: > 25 µM
T-47D breast
  GI50: 14.6 µM
  TGI: > 25 µM
NCI-H460 lung
  GI50: > 25 µM
  TGI: > 25 µM
U251 CNS
  GI50: > 25 µM
  TGI: > 25 µM
NCI-H23 lung
  GI50: > 25 µM
  TGI: > 25 µM
A549 NSCLC
  GI50: > 25 µM
  TGI: > 25 µM
SR leukemia
  GI50: > 25 µM
  TGI: > 25 µM
NCI-H226 lung
  GI50: > 25 µM
  TGI: > 25 µM
SK-MEL-28 melanoma
  GI50: > 25 µM
  TGI: > 25 µM
SF-539 CNS
  GI50: > 25 µM
  TGI: > 25 µM
UACC-257 melanoma
  GI50: > 25 µM
  TGI: > 25 µM
SK-MEL-5 melanoma
  GI50: > 25 µM
  TGI: > 25 µM
SN12C renal
  GI50: > 25 µM
  TGI: > 25 µM
OVCAR-8 ovarian
  GI50: > 25 µM
  TGI: > 25 µM
MDA-MB-231 breast
  GI50: > 25 µM
  TGI: > 25 µM
MALME-3M melanoma
  GI50: > 25 µM
  TGI: > 25 µM
HCT-116 colon
  GI50: > 25 µM
  TGI: > 25 µM
OVCAR-5 ovarian
  GI50: > 25 µM
  TGI: > 25 µM
HCT-15 colon
  GI50: > 25 µM
  TGI: > 25 µM
OVCAR-3 ovarian
  GI50: > 25 µM
  TGI: > 25 µM
RXF 393 renal
  GI50: > 25 µM
  TGI: > 25 µM
786-0 renal
  GI50: > 25 µM
  TGI: > 25 µM
SF-268 CNS
  GI50: > 25 µM
  TGI: > 25 µM
SW-620 colon
  GI50: > 25 µM
  TGI: > 25 µM
IGROV1 ovarian
  GI50: > 25 µM
  TGI: > 25 µM
OVCAR-4 ovarian
  GI50: > 24.1 µM
  TGI: > 25 µM
ACHN renal
  GI50: > 25 µM
  TGI: > 25 µM
HL-60(TB) leukemia
  GI50: > 25 µM
  TGI: > 25 µM
A498 renal
  GI50: > 25 µM
  TGI: > 25 µM
CCRF-CEM leukemia
  GI50: > 25 µM
  TGI: > 25 µM
HCC-2998 colon
  GI50: > 25 µM
  TGI: > 25 µM
HOP-62 NSCLC
  GI50: > 25 µM
  TGI: > 25 µM
PC-3 prostate
  GI50: > 25 µM
  TGI: > 25 µM
K-562 leukemia
  GI50: > 25 µM
  TGI: > 25 µM
UO-31 renal
  GI50: > 25 µM
  TGI: > 25 µM
SNB-19 CNS
  GI50: > 25 µM
  TGI: > 25 µM
TK-10 renal
  GI50: > 25 µM
  TGI: > 25 µM
HOP-92 NSCLC
  GI50: > 25 µM
  TGI: > 25 µM
COLO 205 colon
  GI50: > 25 µM
  TGI: > 25 µM
RPMI-8226 leukemia
  GI50: > 25 µM
  TGI: > 25 µM
SF-295 CNS
  GI50: > 25 µM
  TGI: > 25 µM
BT-549 breast
  GI50: > 25 µM
  TGI: > 25 µM
EKVX NSCLC
  GI50: > 25 µM
  TGI: > 25 µM
NCI-H522 lung
  GI50: > 25 µM
  TGI: > 25 µM
DU-145 prostate
  GI50: > 25 µM
  TGI: > 25 µM
MOLT-4 leukemia
  GI50: > 25 µM
  TGI: > 25 µM
CAKI-1 renal
  GI50: > 25 µM
  TGI: > 25 µM
KM12 colon
  GI50: > 25 µM
  TGI: > 25 µM
NCI/ADR-RES ovarian
  GI50: > 25 µM
  TGI: > 25 µM
MDA-MB-435
  GI50: > 25 µM
  TGI: > 25 µM
HT29 colon
  GI50: > 25 µM
  TGI: > 25 µM
MCF7 breast
  GI50: > 25 µM
  TGI: > 25 µM
M14 melanoma
  GI50: > 25 µM
  TGI: > 25 µM
UACC-62 melanoma
  GI50: > 25 µM
  TGI: > 25 µM

## CN(C)c1ccc(/C=C2\N=C(N/N=C/c3ccccc3O)NC2=O)cc1
HS 578T breast
  TGI: > 100 µM
SNB-75 CNS
  TGI: 89.7 µM
NCI-H226 lung
  TGI: 41.1 µM
SK-MEL-28 melanoma
  TGI: 62.7 µM
SN12C renal
  TGI: > 100 µM
OVCAR-5 ovarian
  TGI: > 100 µM
RXF 393 renal
  TGI: 55.9 µM
MDA-N
  TGI: > 100 µM
SF-268 CNS
  TGI: > 100 µM
A498 renal
  TGI: 61.7 µM
HCC-2998 colon
  TGI: > 100 µM
HOP-62 NSCLC
  TGI: 53 µM
SNB-19 CNS
  TGI: > 100 µM
TK-10 renal
  TGI: 59.4 µM
HOP-92 NSCLC
  TGI: 59.7 µM
COLO 205 colon
  TGI: > 100 µM
RPMI-8226 leukemia
  TGI: > 100 µM
BT-549 breast
  TGI: > 100 µM
DU-145 prostate
  TGI: > 100 µM
MDA-MB-435
  TGI: > 100 µM
HT29 colon
  TGI: > 100 µM

## CCN(CC)c1ccc(/C=C/C(=O)c2cc(C(C)(C)C)c(O)c(C(C)(C)C)c2)cc1
HS 578T breast
  TGI: > 39.9 µM
LOX IMVI melanoma
  TGI: > 100 µM
SNB-75 CNS
  TGI: > 100 µM
SK-OV-3 ovarian
  TGI: > 100 µM
SK-MEL-2 melanoma
  TGI: > 71.5 µM
NCI-H460 lung
  TGI: 38.2 µM
U251 CNS
  TGI: 11.9 µM
NCI-H23 lung
  TGI: > 100 µM
A549 NSCLC
  TGI: > 100 µM
SR leukemia
  TGI: > 24.5 µM
NCI-H226 lung
  TGI: 99.1 µM
SK-MEL-28 melanoma
  TGI: > 100 µM
SF-539 CNS
  TGI: 10.5 µM
UACC-257 melanoma
  TGI: > 100 µM
SK-MEL-5 melanoma
  TGI: 70.9 µM
SN12C renal
  TGI: > 84 µM
OVCAR-8 ovarian
  TGI: > 100 µM
MDA-MB-231 breast
  TGI: 48.1 µM
MALME-3M melanoma
  TGI: > 100 µM
HCT-116 colon
  TGI: > 39.1 µM
OVCAR-5 ovarian
  TGI: > 44.8 µM
HCT-15 colon
  TGI: > 100 µM
OVCAR-3 ovarian
  TGI: > 100 µM
RXF 393 renal
  TGI: 39.1 µM
MDA-N
  TGI: 13.5 µM
786-0 renal
  TGI: > 81.2 µM
SF-268 CNS
  TGI: > 52.9 µM
SW-620 colon
  TGI: > 100 µM
IGROV1 ovarian
  TGI: > 100 µM
OVCAR-4 ovarian
  TGI: > 100 µM
ACHN renal
  TGI: > 100 µM
HL-60(TB) leukemia
  TGI: > 39.2 µM
A498 renal
  TGI: > 100 µM
CCRF-CEM leukemia
  TGI: > 66 µM
HCC-2998 colon
  TGI: 37 µM
HOP-62 NSCLC
  TGI: > 100 µM
PC-3 prostate
  TGI: > 100 µM
K-562 leukemia
  TGI: > 100 µM
UO-31 renal
  TGI: > 100 µM
SNB-19 CNS
  TGI: > 100 µM
TK-10 renal
  TGI: 97.6 µM
HOP-92 NSCLC
  TGI: > 100 µM
COLO 205 colon
  TGI: 14.7 µM
RPMI-8226 leukemia
  TGI: 38.8 µM
SF-295 CNS
  TGI: 7.98 µM
BT-549 breast
  TGI: > 100 µM
EKVX NSCLC
  TGI: > 100 µM
NCI-H522 lung
  TGI: 10.2 µM
DU-145 prostate
  TGI: > 100 µM
MOLT-4 leukemia
  TGI: > 100 µM
CAKI-1 renal
  TGI: > 100 µM
KM12 colon
  TGI: > 30.3 µM
NCI/ADR-RES ovarian
  TGI: 26.9 µM
MDA-MB-435
  TGI: 13.3 µM
HT29 colon
  TGI: 9.52 µM
MCF7 breast
  TGI: > 100 µM
M14 melanoma
  TGI: > 93.9 µM
UACC-62 melanoma
  TGI: > 100 µM
